# Assay results as given in patent US8326545B2, “System and method for displaying a pharmacokinetic and pharmacodynamic drug model” (General Electric Company, priority 2006, dated 2012).
# Experiments:
# [1] = minimum alveolar concentration; cited from earlier work
# [2] = Age MAC Awake (variation on MAC that accounts for age and adjusts to consciousness); format: in vivo, patient
# Description: Interactions are labeled “unknown” when (CeAA>0.3%*AgeMACawake); wherein AGEMACawake is a variation on MAC that accounts for age and adjusts to consciousness.
SMILES,MAC [1],Age MAC Awake ([2]; age 18),Age MAC Awake ([2]; donor one),Age MAC Awake ([2]; donor two)
FC(F)OC(F)(F)C(F)Cl (stereo not drawn) [Enflurane],1.7,0.679,0.582,0.411
FC(F)(F)C(Cl)Br (stereo not drawn) [Halothane],0.75,0.481,0.413,0.291
FC(F)OC(F)C(F)(F)F (stereo not drawn) [Desflurane],6,2.396,2.055,1.450
FCOC(C(F)(F)F)C(F)(F)F [Sevoflurane],2.05,0.819,0.702,0.495
FC(F)OC(Cl)C(F)(F)F (stereo not drawn) [Isoflurane],1.15,0.459,0.394,0.278
[N-]=[N+]=O [Nitrous Oxide],100,64.148,55.021,38.817
